Laboratory results from patent US6413997B1, “3-(substituted phenyl)-5-(substituted heterocyclyl)-1,2,4-triazole compounds” (priority 1998, dated 2002).

Key:
Format in all cases: in vivo
[1] = system: twospotted spider mite (tetranychus uriticae); assay: Two-spotted spider mite test, ovicide method on cotton leaf discs; conditions: leaf disc dip, 6 days, hatched larvae versus untreated discs
Protocol: Insecticidal Test for Two-spotted Spider Mite (Tetranychus urticae)
Ten adult female two-spotted spider mites were placed on eight 2.2 cm leaf discs of cotton leaf, allowed to oviposit over 24 hours, and thereafter removed. The leaf discs were immersed in 100 ppm test solutions for 3 seconds, then allowed to dry with sixteen discs left untreated as a negative control. Discs were placed on an agar substrate and held at 24° C. and 90% relative humidity for 6 days.

[2] = system: cotton aphids (aphis gossypii); assay: Insecticidal test for cotton aphid, foliar spray on infested squash cotyledons; conditions: 50 ppm spray, graded after 3 days, versus untreated check
Protocol: Insecticidal Test for Cotton Aphid (Aphis gossypii)
To prepare spray solutions, 2 mg of each test compound was dissolved into 2 mL of a 90:10 acetone:ethanol solvent. This 2 mL of chemical solution was added to 38 mL of water containing 0.05% Tween 20 surfactant to produce a 50 ppm spray solution.
Squash cotyledons were infested with cotton aphid (all life stages16-20 hours prior to application of spray solution. The solution was sprayed on both sides of each infested squash cotyledon (0.5 mL×2 each side with a sweeping action using a total of 2 mL of spray solution. The plants were allowed to air dry and held for 3 days in a controlled room at 26° C. and 40% RH after which time the test was graded. Grading was by actual count using a dissecting microscope and comparison of test counts to the untreated check. Results are given in Table 1 as percent control based on population reduction versus the untreated.

[3] = system: sweetpotato whitefly (bemisia tabaci); assay: Sweetpotato whitefly test on cotton plants under laboratory conditions; conditions: 800 ppm (table footnote), spray on cotton plants with eggs, 21 days, spent pupal cases versus solution-only plants
Protocol: Evaluation of Tests Compounds on Sweetpotato Whitefly (Bemisia tabacia) Under Laboratory Conditions
Four mg of each test compound was dissolved by adding 5 ml of a 90:10 acetone:ethanol solvent mixture to the vial containing the sample compound. […]
Five-week-old cotton plants reared in a greenhouse were stripped of all foliage except for the two uppermost true leaves that were greater than 5 cm in diameter. These plants were then placed into a laboratory colony of whiteflies for three days for oviposition by the colony females. All whiteflies were then removed from the test plants with pressurized air. The spray solution was then applied to the test plants with a hand-held syringe fitted with hollow cone nozzle. One mL spray solution was applied to each leaf top and bottom for a total of 4 mL per plant. Four replications of each test compound utilized a total of 16 mL spray solution. Plants were air dried and then placed in a holding chamber (26° C. and 40% RH for 21 days. Compound efficacy was evaluated by counting, under a dissecting microscope, the number of spent pupal cases per leaf. A spent pupal case represents a whitefly egg that has undergone full development to achieve adult status, thus indicating lack of control.
Percent control based on reduction of spent pupal cases of a test compound compared to solution-only (no test compound sprayed plants is reported in Table 1.

Cn1nc(-c2c(F)cccc2F)nc1-c1sc(Cl)nc1Cl [Compound 42]
TSSM: activity at 100 ppm against twospotted spider mite (rating of % mortality / percent control) [1]: A (91-100) | CA: activity at 50 ppm against cotton aphids (rating of % mortality / percent control) [2]: B (81-90) | WF: activity at 800 ppm against sweetpotato whitefly (rating of % mortality / percent control) [3]: G (Inactive)

Cc1cc(-c2nc(-c3c(F)cccc3F)nn2C)n(C)n1 [Compound 62]
TSSM: activity at 100 ppm against twospotted spider mite (rating of % mortality / percent control) [1]: G (Inactive) | CA: activity at 50 ppm against cotton aphids (rating of % mortality / percent control) [2]: A (91-100) | WF: activity at 800 ppm against sweetpotato whitefly (rating of % mortality / percent control) [3]: E (51-60)

Cc1nc(Cl)sc1-c1nc(-c2c(F)cccc2F)nn1C [Compound 39]
TSSM: activity at 100 ppm against twospotted spider mite (rating of % mortality / percent control) [1]: A (91-100) | CA: activity at 50 ppm against cotton aphids (rating of % mortality / percent control) [2]: A (91-100) | WF: activity at 800 ppm against sweetpotato whitefly (rating of % mortality / percent control) [3]: G (Inactive)

Cn1nc(-c2c(F)cccc2F)nc1-c1snc(-c2ccccc2)c1Br [Compound 7]
TSSM: activity at 100 ppm against twospotted spider mite (rating of % mortality / percent control) [1]: G (Inactive) | CA: activity at 50 ppm against cotton aphids (rating of % mortality / percent control) [2]: B (81-90) | WF: activity at 800 ppm against sweetpotato whitefly (rating of % mortality / percent control) [3]: E (51-60)

Cn1nc(-c2c(F)cccc2Cl)nc1-c1snc(-c2ccccc2)c1Br [Compound 8]
TSSM: activity at 100 ppm against twospotted spider mite (rating of % mortality / percent control) [1]: C (71-80) | CA: activity at 50 ppm against cotton aphids (rating of % mortality / percent control) [2]: B (81-90) | WF: activity at 800 ppm against sweetpotato whitefly (rating of % mortality / percent control) [3]: G (Inactive)

Cn1nc(-c2c(F)cccc2F)nc1-c1ccc(Br)n1C [Compound 85]
TSSM: activity at 100 ppm against twospotted spider mite (rating of % mortality / percent control) [1]: E (51-60) | CA: activity at 50 ppm against cotton aphids (rating of % mortality / percent control) [2]: B (81-90) | WF: activity at 800 ppm against sweetpotato whitefly (rating of % mortality / percent control) [3]: G (Inactive)
